Experimental findings from ChEMBL document CHEMBL1770137, “High concentration electrophysiology-based fragment screen: discovery of novel acid-sensing ion channel 3 (ASIC3) inhibitors” (Bioorg Med Chem Lett, 2011) are described below.

In data set [1] the target is T1, Acid-sensing ion channel 3 (Homo sapiens, UniProt Q9UHC3).
T1 sequence (Q9UHC3 whole entry): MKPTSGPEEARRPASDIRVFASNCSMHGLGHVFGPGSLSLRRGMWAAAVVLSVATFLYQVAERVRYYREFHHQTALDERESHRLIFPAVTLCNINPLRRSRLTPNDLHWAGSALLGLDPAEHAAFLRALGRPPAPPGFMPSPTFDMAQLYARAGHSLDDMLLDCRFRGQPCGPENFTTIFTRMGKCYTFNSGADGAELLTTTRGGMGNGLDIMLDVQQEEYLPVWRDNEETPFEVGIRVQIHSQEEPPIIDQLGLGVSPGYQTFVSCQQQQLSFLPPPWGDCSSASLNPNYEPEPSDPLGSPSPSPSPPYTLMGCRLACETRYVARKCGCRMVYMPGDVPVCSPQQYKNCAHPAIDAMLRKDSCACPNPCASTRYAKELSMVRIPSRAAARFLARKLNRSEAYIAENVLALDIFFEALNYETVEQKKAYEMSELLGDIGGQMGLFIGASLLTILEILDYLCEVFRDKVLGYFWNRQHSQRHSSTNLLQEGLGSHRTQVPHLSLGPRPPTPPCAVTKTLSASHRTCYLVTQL
Briefly: Inhibition of human ASIC3 expressed in HEK293 cells assessed as inhibition of acid-evoked current by manual patch-clamp electrophysiology assay. It is filed as cell-based. In general terms: Patch clamp records ionic current or voltage across a cell membrane.

Data set [2] addresses T2, Acid-sensing ion channel 3 (Homo sapiens) (UniProt Q9UHC3).
T2 sequence (whole entry): T1 sequence (Q9UHC3 whole entry)
The experiment in a line: Inhibition of human ASIC3 expressed in HEK293 cells assessed as inhibition of acid-evoked current at 10 uM by manual patch-clamp electrophysiology assay. It is filed as cell-based.

Data set [3] is described as follows: Lipophilicity, log D of the compound by HPLC. It is filed as physicochemical.
The nature of data set [4]: Plasma protein binding in human. It is filed as ADME, cell-free. Conditions: read-out: PPB (converted).
Data set [5] has as its target Voltage-dependent L-type calcium channel subunit alpha-1C (Homo sapiens, UniProt Q13936). The experiment in a line: Inhibition of Cav1.2.
For a further data set, the target named is CYP2D6 (Homo sapiens, UniProt P10635). Briefly: Inhibition of CYP2D6 at 10 uM. It is filed as ADME.
CYP2D6, sequence (P10635 whole entry): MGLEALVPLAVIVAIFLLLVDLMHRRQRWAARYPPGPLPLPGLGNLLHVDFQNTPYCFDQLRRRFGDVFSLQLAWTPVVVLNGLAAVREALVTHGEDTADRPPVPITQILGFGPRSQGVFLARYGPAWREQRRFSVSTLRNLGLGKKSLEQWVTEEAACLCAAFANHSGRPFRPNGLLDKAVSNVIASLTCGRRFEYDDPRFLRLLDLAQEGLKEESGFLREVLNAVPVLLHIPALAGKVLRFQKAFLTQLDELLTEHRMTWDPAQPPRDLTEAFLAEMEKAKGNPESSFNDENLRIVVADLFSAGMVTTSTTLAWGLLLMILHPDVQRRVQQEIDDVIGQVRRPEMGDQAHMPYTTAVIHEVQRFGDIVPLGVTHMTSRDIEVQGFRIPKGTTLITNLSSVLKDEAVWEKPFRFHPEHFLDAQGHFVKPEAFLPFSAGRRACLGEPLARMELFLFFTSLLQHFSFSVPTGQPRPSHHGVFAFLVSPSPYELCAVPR
The nature of data set [6]: Plasma protein binding in rat. It is filed as ADME, cell-free. Conditions: read-out: PPB (converted).
A further data set addresses CYP3A4 (Homo sapiens, UniProt P08684). The experiment in a line: Inhibition of CYP3A4 at 10 uM. It is filed as ADME.
In another data set the target is CYP2C9 (Homo sapiens, UniProt P11712). Briefly: Inhibition of CYP2C9 at 10 uM. It is filed as ADME.
CYP2C9, sequence (P11712 whole entry): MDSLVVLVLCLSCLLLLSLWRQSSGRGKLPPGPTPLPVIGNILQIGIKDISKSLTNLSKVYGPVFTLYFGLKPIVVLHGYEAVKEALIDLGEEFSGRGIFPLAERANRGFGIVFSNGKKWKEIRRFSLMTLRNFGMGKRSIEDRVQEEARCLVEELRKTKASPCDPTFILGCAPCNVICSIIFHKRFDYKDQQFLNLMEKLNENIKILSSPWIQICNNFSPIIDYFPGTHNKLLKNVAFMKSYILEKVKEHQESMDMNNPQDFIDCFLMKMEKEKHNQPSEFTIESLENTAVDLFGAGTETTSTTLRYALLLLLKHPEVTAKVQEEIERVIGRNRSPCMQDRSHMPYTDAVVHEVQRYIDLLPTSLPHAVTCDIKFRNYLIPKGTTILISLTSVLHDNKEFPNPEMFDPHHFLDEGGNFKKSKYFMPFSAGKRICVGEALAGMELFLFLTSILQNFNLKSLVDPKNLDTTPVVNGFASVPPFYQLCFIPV
For data set [7], the target named is T2, Acid-sensing ion channel 3 (Homo sapiens). Briefly: Inhibition of human ASIC3 expressed in HEK293 cells assessed as inhibition of acid-evoked current at 1000 uM by manual patch-clamp electrophysiology assay. It is filed as cell-based.
Data set [8] shares this target. Briefly: Inhibition of human ASIC3 expressed in HEK293 cells assessed as inhibition of acid-evoked current at 500 uM by manual patch-clamp electrophysiology assay. It is filed as cell-based.
Data set [9] can be described thus: Volume of distribution in rat. It is filed as ADME, organism-based. Conditions: in vivo.
Data set [10] addresses Voltage-gated inwardly rectifying potassium channel KCNH2 (Homo sapiens, UniProt Q12809). Briefly: Binding affinity to human ERG.
Data set [11] is described as follows: Clearance in rat. It is filed as ADME, organism-based. As to conditions: in vivo.
Data set [12] is described as follows: Half life in rat. It is filed as ADME, organism-based. Conditions: in vivo.

Voltage-dependent L-type calcium channel subunit alpha-1C, sequence (Q13936 whole entry): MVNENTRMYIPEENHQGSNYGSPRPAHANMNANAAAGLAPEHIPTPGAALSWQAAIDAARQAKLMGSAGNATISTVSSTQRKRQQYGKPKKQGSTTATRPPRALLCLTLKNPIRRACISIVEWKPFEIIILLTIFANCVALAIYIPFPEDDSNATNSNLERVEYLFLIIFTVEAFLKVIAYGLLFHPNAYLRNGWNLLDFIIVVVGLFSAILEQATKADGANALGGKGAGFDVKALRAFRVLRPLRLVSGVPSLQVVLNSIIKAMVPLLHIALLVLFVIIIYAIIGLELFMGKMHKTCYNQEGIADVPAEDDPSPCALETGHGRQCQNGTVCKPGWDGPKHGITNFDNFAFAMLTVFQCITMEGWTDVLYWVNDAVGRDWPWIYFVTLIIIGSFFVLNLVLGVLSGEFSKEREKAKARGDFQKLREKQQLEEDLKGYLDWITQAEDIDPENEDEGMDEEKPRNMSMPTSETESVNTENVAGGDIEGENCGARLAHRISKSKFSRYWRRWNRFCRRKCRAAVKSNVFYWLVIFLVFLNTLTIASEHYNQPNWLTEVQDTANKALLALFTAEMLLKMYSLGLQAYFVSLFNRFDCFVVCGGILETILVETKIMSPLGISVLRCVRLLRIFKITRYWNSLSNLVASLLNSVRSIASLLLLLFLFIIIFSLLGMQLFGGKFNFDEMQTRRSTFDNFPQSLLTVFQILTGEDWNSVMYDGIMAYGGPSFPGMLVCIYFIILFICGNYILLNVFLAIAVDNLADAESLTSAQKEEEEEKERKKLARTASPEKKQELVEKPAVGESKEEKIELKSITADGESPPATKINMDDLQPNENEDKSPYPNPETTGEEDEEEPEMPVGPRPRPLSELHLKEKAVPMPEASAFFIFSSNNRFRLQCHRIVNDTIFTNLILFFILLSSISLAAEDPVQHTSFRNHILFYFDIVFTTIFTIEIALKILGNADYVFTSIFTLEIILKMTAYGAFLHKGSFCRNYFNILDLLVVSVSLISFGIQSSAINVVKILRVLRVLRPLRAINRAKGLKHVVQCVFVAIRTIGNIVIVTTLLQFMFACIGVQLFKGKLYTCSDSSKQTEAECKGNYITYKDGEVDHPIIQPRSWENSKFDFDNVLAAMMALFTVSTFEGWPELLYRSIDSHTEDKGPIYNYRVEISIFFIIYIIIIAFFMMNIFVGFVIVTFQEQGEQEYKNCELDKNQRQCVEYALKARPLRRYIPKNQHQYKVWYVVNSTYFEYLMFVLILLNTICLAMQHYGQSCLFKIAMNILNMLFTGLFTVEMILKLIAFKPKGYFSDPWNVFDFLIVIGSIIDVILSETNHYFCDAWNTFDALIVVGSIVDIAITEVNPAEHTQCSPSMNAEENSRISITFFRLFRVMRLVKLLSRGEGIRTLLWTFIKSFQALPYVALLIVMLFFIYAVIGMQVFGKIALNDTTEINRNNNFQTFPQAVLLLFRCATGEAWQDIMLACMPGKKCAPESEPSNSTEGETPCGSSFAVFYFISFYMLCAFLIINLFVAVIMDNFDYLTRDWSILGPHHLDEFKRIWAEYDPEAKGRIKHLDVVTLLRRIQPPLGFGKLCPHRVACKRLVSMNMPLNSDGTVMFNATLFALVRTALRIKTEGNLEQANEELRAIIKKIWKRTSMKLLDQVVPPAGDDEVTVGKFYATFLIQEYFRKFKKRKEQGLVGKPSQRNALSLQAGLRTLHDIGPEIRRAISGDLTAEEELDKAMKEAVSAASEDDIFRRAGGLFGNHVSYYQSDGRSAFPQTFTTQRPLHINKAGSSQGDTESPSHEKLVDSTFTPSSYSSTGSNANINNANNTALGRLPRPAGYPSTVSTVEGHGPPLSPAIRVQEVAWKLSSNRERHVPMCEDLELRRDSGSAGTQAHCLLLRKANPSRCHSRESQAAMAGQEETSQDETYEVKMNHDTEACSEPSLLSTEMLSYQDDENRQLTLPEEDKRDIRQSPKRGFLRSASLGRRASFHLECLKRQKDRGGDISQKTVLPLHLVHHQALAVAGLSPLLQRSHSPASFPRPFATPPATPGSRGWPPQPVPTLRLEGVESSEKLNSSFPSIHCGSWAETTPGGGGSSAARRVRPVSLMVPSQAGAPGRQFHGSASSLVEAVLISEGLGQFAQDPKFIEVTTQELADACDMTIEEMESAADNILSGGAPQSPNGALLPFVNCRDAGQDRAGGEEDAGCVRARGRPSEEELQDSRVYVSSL
CYP3A4, sequence (P08684 whole entry): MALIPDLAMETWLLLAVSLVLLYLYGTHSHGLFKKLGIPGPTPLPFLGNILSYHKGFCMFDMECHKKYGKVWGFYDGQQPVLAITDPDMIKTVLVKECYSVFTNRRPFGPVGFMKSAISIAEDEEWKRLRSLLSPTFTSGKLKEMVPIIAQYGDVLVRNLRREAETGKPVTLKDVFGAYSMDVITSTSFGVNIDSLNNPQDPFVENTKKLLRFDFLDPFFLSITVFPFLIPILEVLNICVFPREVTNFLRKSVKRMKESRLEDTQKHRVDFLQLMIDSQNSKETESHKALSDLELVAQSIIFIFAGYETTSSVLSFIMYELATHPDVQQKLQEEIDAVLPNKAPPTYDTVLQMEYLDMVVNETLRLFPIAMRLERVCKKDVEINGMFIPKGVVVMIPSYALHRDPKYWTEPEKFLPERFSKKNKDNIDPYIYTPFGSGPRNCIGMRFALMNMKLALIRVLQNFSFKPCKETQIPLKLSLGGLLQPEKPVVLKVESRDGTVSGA
Voltage-gated inwardly rectifying potassium channel KCNH2, sequence (Q12809 whole entry): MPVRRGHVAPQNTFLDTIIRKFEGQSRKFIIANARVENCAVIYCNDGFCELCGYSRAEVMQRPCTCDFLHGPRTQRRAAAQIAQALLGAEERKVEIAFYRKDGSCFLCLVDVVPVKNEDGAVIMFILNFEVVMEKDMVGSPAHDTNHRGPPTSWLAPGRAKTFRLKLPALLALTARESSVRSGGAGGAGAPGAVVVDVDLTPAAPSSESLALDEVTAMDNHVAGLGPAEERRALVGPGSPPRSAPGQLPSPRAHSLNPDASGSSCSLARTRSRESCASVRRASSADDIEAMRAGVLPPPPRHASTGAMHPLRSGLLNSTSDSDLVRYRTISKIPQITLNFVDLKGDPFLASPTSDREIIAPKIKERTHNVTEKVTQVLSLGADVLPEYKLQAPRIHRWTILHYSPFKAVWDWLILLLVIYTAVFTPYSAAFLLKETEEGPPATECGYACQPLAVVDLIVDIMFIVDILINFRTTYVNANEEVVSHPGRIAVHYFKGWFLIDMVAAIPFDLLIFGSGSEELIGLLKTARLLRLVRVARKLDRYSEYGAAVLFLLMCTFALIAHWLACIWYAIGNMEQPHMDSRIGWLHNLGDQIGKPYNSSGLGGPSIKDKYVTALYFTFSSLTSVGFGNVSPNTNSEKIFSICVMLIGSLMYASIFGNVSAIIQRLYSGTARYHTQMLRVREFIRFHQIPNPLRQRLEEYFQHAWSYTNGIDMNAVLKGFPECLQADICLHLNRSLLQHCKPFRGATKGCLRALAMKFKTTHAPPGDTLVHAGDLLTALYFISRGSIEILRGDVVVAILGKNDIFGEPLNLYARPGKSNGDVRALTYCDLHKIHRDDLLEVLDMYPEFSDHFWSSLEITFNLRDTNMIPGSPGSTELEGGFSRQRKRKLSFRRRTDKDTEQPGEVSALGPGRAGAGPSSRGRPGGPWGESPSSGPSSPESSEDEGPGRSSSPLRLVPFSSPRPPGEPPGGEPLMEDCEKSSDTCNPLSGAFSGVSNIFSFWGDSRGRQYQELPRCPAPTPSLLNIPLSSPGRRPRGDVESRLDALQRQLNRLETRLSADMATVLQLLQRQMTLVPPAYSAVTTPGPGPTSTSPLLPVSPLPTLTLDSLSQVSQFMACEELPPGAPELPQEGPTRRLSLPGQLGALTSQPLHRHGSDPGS

As for `CN1CCN(c2ccc(-c3ccc4c(c3)CCNC4)cc2)CC1`, in data set [1], the IC50 – broadly, the concentration at which inhibition is half-maximal – turned out to be 14.4 µM.

Turning to `c1cc2c(cc1-c1cnc3c(c1)CCN3)CCNC2`, the IC50 in [1] came to 19.4 µM. As to `CCCc1cc(NC)c2cc(C(=O)NCCc3ccc(Cl)cc3)ccc2n1`, the inhibition (usually how much of the control response was suppressed) in data set [2] amounted to 3%.

Regarding `Brc1ccc2c(c1)CCNC2`, the IC50 in data set [1] turned out to be 701 µM. Turning to `NCc1cc2ccccc2s1`, the IC50 in data set [1] turned out to be 97 µM. The same measure, in the same setting: under `Nc1ccnc(-c2cccc(C#CCCO)c2)c1` stands 2.6 µM; under `Nc1ccc(-c2c[nH]cn2)cc1`, 430 µM; under `Nc1ccnc(-c2ccccc2)c1`, 6.9 µM. Still for that read-out and setting: in the case of `COc1cccnc1Nc1cccc(C)n1` it was 190 µM.

Take `CN1CCN(c2ccc(-c3ccc4c(c3)CCNC4)cc2C(F)(F)F)CC1`: the logD (usually the decadic logarithm of the distribution of all forms, ionised or not, between an organic phase and buffer at a given pH) in data set [3] worked out at 2.13. The results for the fraction unbound in [4] and in data set [6] were 0.11 and 0.011, respectively. Besides, the figures for the IC50 in data set [5] and in data set [1] were more than 30 µM and 3.1 µM, respectively. In addition, the inhibition at 10 µM on CYP2D6, against CYP3A4 and on CYP2C9 was less than 35% throughout. Consider `COc1ccc2[nH]cc(CN3CCc4cc(Br)ccc4C3)c2c1`, for which the IC50 in data set [1] came to 10.9 µM. Turning to `c1ccc(-c2c[nH]cn2)cc1`, the inhibition in data set [7] was 66%. As to `Nc1cc(Cc2ccccn2)nc(-c2ccccc2)c1`, the half-maximal inhibitory concentration (IC50) in data set [1] is 5.8 µM. Take `CC1CCCCN1c1cccc(-c2ccc3c(c2)CCNC3)n1` (stereo unspecified): the IC50 in [1] is 1.7 µM. Same read-out and setting: under `NCc1nc2ccccc2s1` stands 363 µM; under `Clc1cc(Cl)cc(-c2ccc3c(c2)CCNC3)c1`, 3.3 µM. Take `Brc1ccc2c(c1)CCN2`: in data set [8], the inhibition was 12%. For the molecule `Cc1cccc(Nc2ccc(C#CC(C)(C)O)cc2)n1`, the IC50 in data set [1] worked out at 17 µM. Same read-out and setting: in the case of `Nc1cc(-c2ccccc2)ncn1` it was 130 µM; in that of `CCCc1cc(N)c2cc(C(=O)NCCc3ccc(Cl)cc3)ccc2n1`, 9.6 µM.

In the case of `Nc1cccc(-c2ccccc2)n1`, in [1], the IC50 is 763 µM. Still for that read-out and setting: in the case of `COc1ccc2[nH]cc(CN3CCc4cc(-c5cccc(C(F)(F)F)c5)ccc4C3)c2c1` it was 103 µM; in that of `Cc1cccc(Nc2nccc3ccoc23)n1`, 9 µM; in that of `Cc1cc(N2CCc3cc(Br)ccc3C2)c2ccccc2n1`, 27.6 µM. The same measure, in the same setting: in the case of `FC(F)(F)c1cccc(-c2ccc3c(c2)CCNC3)c1` it was 7.1 µM.

In the case of `NCc1ccc(-c2c[nH]cn2)cc1`, the IC50 in data set [1] was 160 µM. Still for that read-out and setting: under `Nc1ccnc(-c2cccc(C#Cc3ccccc3)c2)c1` stands 1.2 µM. With `Cc1cccc(Nc2ccc(-c3ccc(N4CCNCC4)nc3)cc2)n1`, the logD in data set [3] is 1.99. For the same molecule, the Vd (as a rule, a proportionality between amount in the body and measured concentration, not a real space) in data set [9] turned out to be 3.5 L/kg. The fraction unbound was 0.098 in data set [4] and 0.007 in data set [6]. Further, in data set [10], the Ki (usually a measure of affinity in units of concentration, obtained from inhibition or displacement) was 0.7 µM. For the same molecule, the IC50 in data set [5] worked out at 20 µM; in data set [1], 3.8 µM. The clearance (as a rule, the rate of elimination divided by the concentration) in data set [11] came out at 11 mL/min/kg. In addition, the half-life (as a rule, the time in which the quantity being followed falls by half) in [12] was 4.8 h. Also, the inhibition at 10 µM on CYP2D6, against CYP3A4 and against CYP2C9 was less than 45% each time.
